Measurements: patent publication US7618964B2, “Benzamide derivatives, their manufacture and use as pharmaceutical agents” (Hoffmann-La Roche Inc., priority 2004, dated 2009)

Tests used:
[1] = target: T1, Src (p60^c-src, partially purified) (Homo sapiens, UniProt P12931); experiment: SRC-Inhibitor-Assay (time-resolved fluorescence kinase assay), Src; assay type: biochemical; details: ATP 5 μM, peptide 10 μM, enzyme 2.5 U/ml, pre-incubated 15 min at 15° C.
T1 construct: purchased UBI, Upstate Biotech, Inc
T1 sequence (P12931 whole entry, species assumed): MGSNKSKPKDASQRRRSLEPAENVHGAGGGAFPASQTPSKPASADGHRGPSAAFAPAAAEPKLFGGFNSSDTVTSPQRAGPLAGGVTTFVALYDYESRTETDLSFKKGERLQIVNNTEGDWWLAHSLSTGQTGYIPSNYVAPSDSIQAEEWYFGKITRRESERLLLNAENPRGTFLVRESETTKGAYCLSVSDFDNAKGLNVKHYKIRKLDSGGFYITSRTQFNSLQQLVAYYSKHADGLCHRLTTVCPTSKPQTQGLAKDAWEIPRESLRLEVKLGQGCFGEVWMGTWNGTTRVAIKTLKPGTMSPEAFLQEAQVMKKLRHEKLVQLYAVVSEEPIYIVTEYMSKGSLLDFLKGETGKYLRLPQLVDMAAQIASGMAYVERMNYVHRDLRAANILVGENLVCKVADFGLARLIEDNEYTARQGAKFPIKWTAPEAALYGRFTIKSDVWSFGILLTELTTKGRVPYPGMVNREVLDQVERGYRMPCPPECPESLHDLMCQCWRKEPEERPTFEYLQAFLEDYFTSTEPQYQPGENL
Text: (§1) The activity of the compounds according to this invention as inhibitors for the src-family tyrosine kinases was shown by using the following assay.
(§2) SRC-Inhibitor-Assay Parameters:
(§3) Time-resolved Fluorescence Assay: Reader: Perkin Elmer, Wallac Viktor 1420-040 multilabel counter; Liquid handling system: Beckman Coulter, Biomek 2000.
(§4) ATP, Tween™ 20, 4-(2-hydroxyethyl)-1-piperazineethanesulfonic acid (HEPES) were purchased from Roche Molecular Biochemicals, MgCl2 and MnCl2 were purchased from Merck Eurolab, Tris(2-carboxyethyl)phosphine hydrochloride (TCEP) was purchased from Pierce, 384 Well low volume fluorescence plates was purchased from Falcon.
(§5) At first the enzyme is pre-incubated for 15 min. at 15° C. in aqueous solution with corresponding amounts of inhibitors according to this invention. Then the phosphorylation reaction is started by adding a reaction mixture, containing ATP, Peptide and PT66, and subsequent shaking. The proceeding of this reaction is immediately monitored using time resolved fluorescence spectroscopy in a suitable well plate reader.
(§6) The IC50-values can be obtained from the reaction rates by using a non-linear curve fit (XLfit software (ID Business Solution Ltd., Guilford, Surrey, UK))

Lck (p56^lck, active) = target: T2, Lck (p56^lck, active) (Homo sapiens, UniProt P06239); experiment: SRC-Inhibitor-Assay (time-resolved fluorescence kinase assay), Lck; assay type: biochemical; details: ATP 5 μM, peptide 10 μM, enzyme 2.5 U/ml, pre-incubated 15 min at 15° C.
T2 construct: purchased UBI, Upstate Biotech, Inc
T2 sequence (P06239 whole entry, species assumed): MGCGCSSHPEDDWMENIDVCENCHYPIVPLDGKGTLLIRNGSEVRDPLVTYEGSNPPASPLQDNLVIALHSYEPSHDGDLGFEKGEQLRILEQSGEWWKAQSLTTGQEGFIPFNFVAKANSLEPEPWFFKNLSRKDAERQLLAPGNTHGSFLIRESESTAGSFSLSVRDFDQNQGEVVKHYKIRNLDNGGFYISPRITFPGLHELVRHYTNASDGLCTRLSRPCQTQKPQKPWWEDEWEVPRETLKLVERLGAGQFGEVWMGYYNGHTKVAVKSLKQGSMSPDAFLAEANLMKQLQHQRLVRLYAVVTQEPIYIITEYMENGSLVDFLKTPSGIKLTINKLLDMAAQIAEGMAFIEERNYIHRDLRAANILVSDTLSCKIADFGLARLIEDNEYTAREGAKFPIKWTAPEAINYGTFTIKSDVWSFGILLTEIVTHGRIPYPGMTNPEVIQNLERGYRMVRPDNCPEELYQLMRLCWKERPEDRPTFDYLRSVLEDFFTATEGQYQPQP
Text: as §1, §2, §3, §4, §5, §6

IC50 [1] | IC50 (Lck (p56^lck, active)) | Compound
5 to 300 nM | 40 to 9000 nM | O=C(Nc1cnc2[nH]c(-c3ccccc3)cc2c1)c1ccccc1Cl [Example 12-1, 2-Chloro-N-(2-phenyl-1H-pyrrolo[2,3-b]pyridine-5-yl)-benzamide]
5 to 300 nM | 40 to 9000 nM | O=C(Nc1cnc2[nH]c(-c3ccccc3)cc2c1)c1ccc(Cl)cc1Cl [Example 12-4, 2,4-Dichloro-N-(2-phenyl-1H-pyrrolo[2,3-b]pyridine-5-yl)-benzamide]
5 to 300 nM | 40 to 9000 nM | O=C(Nc1cnc2[nH]c(-c3ccc4[nH]cnc4c3)nc2c1)c1ccccc1Cl [Example 7-5, N-[2-(1H-Benzoimidazol-5-yl)-3H-imidazo[4,5-b]pyridine-6-yl]-2-chloro-benzamide]
5 to 300 nM | 40 to 9000 nM | O=C(Nc1cnc2[nH]c(-c3ccc(N4CCOCC4)nc3)nc2c1)c1ccccc1Cl [Example 7-7, 2-Chloro-N-[2-(6-morpholin-4-yl-pyridin-3-yl)-3H-imidazo[4,5-b]pyridine-6-yl]-benzamide]
5 to 300 nM | 40 to 9000 nM | O=C(Nc1cnc2[nH]c(-c3ccccc3)nc2c1)c1ccccc1 [Example 1-6, N-(2-Phenyl-3H-imidazo[4,5-b]pyridin-6-yl)-benzamide]
5 to 300 nM | 40 to 9000 nM | Cc1ccccc1C(=O)Nc1cnc2[nH]c(-c3ccccc3)cc2c1 [Example 12-7, 2-Methyl-N-(2-phenyl-1H-pyrrolo[2,3-b]pyridine-5-yl)-benzamide]
5 to 300 nM | 40 to 9000 nM | Nc1cccc(-c2nc3cc(NC(=O)c4ccccc4Cl)cnc3[nH]2)c1 [Example 10-1, N-[2-(3-Amino-phenyl)-3H-imidazo[4,5-b]pyridine-6-yl]-2-chloro-benzamide]
5 to 300 nM | 40 to 9000 nM | COCCOc1ccc(-c2cc3cc(NC(=O)c4ccccc4OC)cnc3[nH]2)cc1 [Example 12-14, 2-Methoxy-N-{2-[4-(2-methoxy-ethoxy)-phenyl]-1H-pyrrolo[2,3-b]pyridin-5-yl}-benzamide]
5 to 300 nM | 40 to 9000 nM | O=C(Nc1cnc2[nH]c(-c3ccsc3)nc2c1)c1ccccc1Cl [Example 4-7, 2-Chloro-N-(2-thiophen-3-yl-3H-imidazo[4,5-b]pyridin-6-yl)-benzamide]
5 to 300 nM | 40 to 9000 nM | COCCOc1ccc(-c2nc3cc(NC(=O)c4ccccc4Cl)cnc3[nH]2)cc1 [Example 4-2, 2-Chloro-N-{2-[4-(2-methoxy-ethoxy)-phenyl]-3H-imidazo[4,5-b]pyridin-6-yl}-benzamide]
5 to 300 nM | 40 to 9000 nM | CN1CCN(c2ccc(-c3nc4cc(NC(=O)c5ccccc5Cl)cnc4[nH]3)cc2)CC1 [Example 4-8, 2-Chloro-N-{2-[4-(4-methyl-piperazin-1-yl)-phenyl]-3H-imidazo[4,5-b]pyridin-6-yl}-benzamide]
5 to 300 nM | 40 to 9000 nM | Nc1ccc(Cl)c(C(=O)Nc2cnc3[nH]c(-c4ccccc4)nc3c2)c1 [Example 3-1, 5-Amino-2-chloro-N-(2-phenyl-3H-imidazo[4,5-b]pyridin-6-yl)-benzamide]
5 to 300 nM | 40 to 9000 nM | CCN(CC)CCOc1ccc(-c2nc3cc(NC(=O)c4ccccc4Cl)cnc3[nH]2)cc1 [Example 4-1, 2-Chloro-N-{2-[4-(2-diethylamino-ethoxy)-phenyl]-3H-imidazo[4,5-b]pyridin-6-yl}-benzamide]
5 to 300 nM | 40 to 9000 nM | COCCC(=O)Nc1cccc(-c2nc3cc(NC(=O)c4ccccc4Cl)cnc3[nH]2)c1 [Example 1-7, 2-Chloro-N-{2-[3-(3-methoxy-propionylamino)-phenyl]-3H-imidazo[4,5-b]pyridin-6-yl}-benzamide]
5 to 300 nM | 40 to 9000 nM | Cc1cccc(Cl)c1C(=O)Nc1cnc2[nH]c(-c3ccccc3)cc2c1 [Example 12-5, 2-Chloro-6-methyl-N-(2-phenyl-1H-pyrrolo[2,3-b]pyridine-5-yl)-benzamide]
5 to 300 nM | 40 to 9000 nM | Cc1ccc(-c2nc3cc(NC(=O)c4ccccc4Cl)cnc3[nH]2)cn1 [Example 7-2, 2-Chloro-N-[2-(6-methyl-pyridin-3-yl)-3H-imidazo[4,5-b]pyridine-6-yl]-benzamide]

IC50 [1] | IC50 (Lck (p56^lck, active)) | Compound
300 to 3500 nM | 1000 to 9000 nM | Cc1ccc([N+](=O)[O-])cc1C(=O)Nc1cnc2[nH]c(-c3ccccc3)nc2c1 [Example 1-4, 2-Methyl-5-nitro-N-(2-phenyl-3H-imidazo[4,5-b]pyridin-6-yl)-benzamide]
5 to 300 nM | 40 to 9000 nM | CSc1cccc(-c2nc3cc(NC(=O)c4ccccc4Cl)cnc3[nH]2)c1 [Example 7-3, 2-Chloro-N-[2-(3-methylsulfanyl-phenyl)-3H-imidazo[4,5-b]pyridine-6-yl]-benzamide]
5 to 300 nM | 40 to 9000 nM | COc1cc(OC)cc(C(=O)Nc2cnc3[nH]c(-c4ccccc4)cc3c2)c1 [Example 12-12, 3,5-Dimethoxy-N-(2-phenyl-1H-pyrrolo[2,3-b]pyridine-5-yl)-benzamide]
5 to 300 nM | 40 to 9000 nM | COCC(COC)NC(=O)c1cccc(-c2nc3cc(NC(=O)c4ccccc4Cl)cnc3[nH]2)c1 [Example 6-3, 2-Chloro-N-(2-{3-[2-methoxy-1-methoxymethyl-ethylcarbamoyl]-phenyl}-3H-imidazo[4,5-b]pyridin-6-yl)-benzamide]
5 to 300 nM | 40 to 9000 nM | Cc1cccc(Cl)c1C(=O)Nc1cnc2[nH]c(-c3ccccc3)nc2c1 [Example 1-2, 2-Chloro-6-methyl-N-(2-phenyl-3H-imidazo[4,5-b]pyridin-6-yl)-benzamide]
5 to 300 nM | 40 to 9000 nM | C[S+]([O-])c1cccc(-c2nc3cc(NC(=O)c4ccccc4Cl)cnc3[nH]2)c1 (centres unmarked) [Example 9-1, 2-Chloro-N-[2-(3-methanesulfinyl-phenyl)-3H-imidazo[4,5-b]pyridine-6-yl]-benzamide]
300 to 3500 nM | 1000 to 9000 nM | O=C(Nc1cnc2[nH]c(-c3ccccc3)nc2c1)c1cc([N+](=O)[O-])ccc1Cl [Example 1-5, 2-Chloro-5-nitro-N-(2-phenyl-3H-imidazo[4,5-b]pyridin-6-yl)-benzamide]
5 to 300 nM | 40 to 9000 nM | CC(=O)Nc1cccc(-c2nc3cc(NC(=O)c4ccccc4Cl)cnc3[nH]2)c1 [Example 11-1, N-[2-(3-Acetylamino-phenyl)-3H-imidazo[4,5-b]pyridine-6-yl]-2-chloro-benzamide]
135 nM | 160 nM | Cc1ccc(N)cc1C(=O)Nc1cnc2[nH]c(-c3ccccc3)nc2c1 [Example 2-1, 5-Amino-2-methyl-N-(2-phenyl-3H-imidazo[4,5-b]pyridin-6-yl)-benzamide]
5 to 300 nM | 40 to 9000 nM | O=C(Nc1cnc2[nH]c(-c3ccccc3)nc2c1)c1ccccc1Br [Example 1-3, 2-Bromo-N-(2-phenyl-3H-imidazo[4,5-b]pyridin-6-yl)-benzamide]
21 nM | 481 nM | O=C(Nc1cnc2[nH]c(-c3ccccc3)nc2c1)c1ccccc1Cl [Example 1-1, 2-Chloro-N-(2-phenyl-3H-imidazo[4,5-b]pyridin-6-yl)-benzamide]
5 to 300 nM | 40 to 9000 nM | COCCN(CCOC)c1ccc(-c2nc3cc(NC(=O)c4ccccc4Cl)cnc3[nH]2)cc1F [Example 13-1, N-(2-{4-[Bis-(2-methoxy-ethyl)-amino]-3-fluoro-phenyl}-3H-imidazo[4,5-b]pyridin-6-yl)-2-chloro-benzamide]
5 to 300 nM | 40 to 9000 nM | COCCCNc1cc(-c2nc3cc(NC(=O)c4ccccc4Cl)cnc3[nH]2)ccn1 [Example 14-1, 2-Chloro-N-{2-[2-(3-methoxy-propylamino)-pyridin-4-yl]-3H-imidazo[4,5-b]pyridin-6-yl}-benzamide]
5 to 300 nM | 40 to 9000 nM | O=C(Nc1cnc2[nH]c(-c3cccs3)nc2c1)c1ccccc1Cl [Example 4-6, 2-Chloro-N-(2-thiophen-2-yl-3H-imidazo[4,5-b]pyridin-6-yl)-benzamide]
7 nM | 49 nM | O=C(Nc1cnc2[nH]c(-c3ccc(N4CCOCC4)cc3)nc2c1)c1ccccc1Cl [Example 4-5, 2-Chloro-N-[2-(4-morpholin-4-yl-phenyl)-3H-imidazo[4,5-b]pyridin-6-yl]-benzamide]
